Tests used:
Assay in all cases: Post-emergence test on weeds (greenhouse, spray at 2-3 leaf stage)
Assay type in all cases: in vivo
Design in all cases: key: Level 10: completely dead; Level 9: growth control rate greater than or equal to 90% and less than 100%; Level 8: growth control rate greater than or equal to 80% and less than 90%; Level 7: growth control rate greater than or equal to 70% and less than 80%; Level 6: growth control rate greater than or equal to 60% and less than 70%; Level 5: growth control rate greater than or equal to 50% and less than 60%; Level 4: growth control rate greater than or equal to 40% and less than 50%; Level 3: growth control rate greater than or equal to 30% and less than 40%; Level 2: growth control rate greater than or equal to 20% and less than 30%; Level 1: growth control rate less than 20%; Level 0: no effect
Settings in all cases: 3 weeks after application
[1] = test system: Abutilon theophrasti
Excerpt: (§1) The activity level criteria for plant damage (i.e., growth control rate) are as follows: • Level 10: completely dead; • Level 9: growth control rate greater than or equal to 90% and less than 100%; • Level 8: growth control rate greater than or equal to 80% and less than 90%; • Level 7: growth control rate greater than or equal to 70% and less than 80%; • Level 6: growth control rate greater than or equal to 60% and less than 70%; • Level 5: growth control rate greater than or equal to 50% and less than 60%; • Level 4: growth control rate greater than or equal to 40% and less than 50%; • Level 3: growth control rate greater than or equal to 30% and less than 40%; • Level 2: growth control rate greater than or equal to 20% and less than 30%; • Level 1: growth control rate less than 20%; • Level 0: no effect.
(§2) The above growth control rates are fresh weight control rates.
(§3) Monocotyledonous and dicotyledonous weed seeds (Descurainia sophia, Capsella bursa-pastoris, Abutilon theophrasti, Galium spurium, Stellaria media, Lithospermum arvense, Rorippa indica, Alopecurus aequalis, Alopecurus japonicus, Eleusine indica, Beckmannia syzigachne, Sclerochloa dura, Erigeron canadensis, Phleum paniculatum, Veronica polita, Bromus japonicus, Aegilops tauschii, Phalaris arundinacea, Amaranthus retrofexus, Chenopodium, Commelina communis, Cichorium endivia, Convolvulus arvensis, Cirsium arvense, Solanum nigrum, Acalypha australis, Digitaria sanguinalis, Echinochloa crus-galli, Setaria viridis, Setaa pumila, Lepochloa chinensis, Monochona vaginalis, Sagitta trifolia, Schoenoplectiella juncoides, Cypenus rotundus, Cyperus ira, Cyperus difformis, Fimbristylis, Portulaca oleracea, Xanthium sibiricum, Ipomoea nil, Eschenbachia japonica, etc.) and major crop seeds (wheat, maize, paddy rice, soybean, cotton, oilseed rape, millet, sorghum, potato, sesame, castor plant, etc.) were placed in plastic pots filled with soil and then covered with 0.5-2 cm of soil to allow them to grow in a favorable greenhouse environment. Two weeks after sowing, the test plants were treated at the stage of 2-3 leaves. The test compounds of the present invention were individually dissolved with acetone, then added with Tween® 80, with 1.5 L/ha of methyl oleate emulsifiable concentrate as a synergist, diluted into solutions of certain concentrations using certain amount of water, and sprayed to the plants using a spray tower. After drug application, the experimental results on weeds were collected after 3 weeks of cultivation in a greenhouse. The compounds were applied at 500, 250, […], 15, and 7.5 g a.i./ha in triplicate, and the results were averaged.

[2] = test system: Amaranthus retroflexus
Excerpt: as §1, §2, §3

[3] = test system: Digitaria sanguinalis
Excerpt: as §1, §2, §3

[4] = test system: Echinochloa crus-galli
Excerpt: as §1, §2, §3

[5] = test system: Setaria viridis
Excerpt: as §1, §2, §3

[6] = test system: Veronica polita
Excerpt: as §1, §2, §3

COC(=O)C1ON=C(c2cc(-c3ncc(C(F)(F)F)cc3Cl)c(F)cc2Br)O1 (stereo not drawn) [Compound 2]
10: activity level (fresh weight growth control rate), Abutilon theophrasti ([1]; 60 g a.i./ha) | activity level (fresh weight growth control rate), Amaranthus retroflexus ([2]; 60 g a.i./ha) | activity level (fresh weight growth control rate), Digitaria sanguinalis ([3]; 60 g a.i./ha) | activity level (fresh weight growth control rate), Echinochloa crus-galli ([4]; 60 g a.i./ha) | activity level (fresh weight growth control rate), Setaria viridis ([5]; 60 g a.i./ha) | activity level (fresh weight growth control rate), Veronica polita ([6]; 60 g a.i./ha)

CCOC(=O)C1ON=C(c2cc(-c3ncc(C(F)(F)F)cc3Cl)c(F)cc2Br)O1 (stereo not drawn) [Compound 25]
10: activity level (fresh weight growth control rate), Abutilon theophrasti ([1]; 60 g a.i./ha) | activity level (fresh weight growth control rate), Amaranthus retroflexus ([2]; 60 g a.i./ha) | activity level (fresh weight growth control rate), Digitaria sanguinalis ([3]; 60 g a.i./ha) | activity level (fresh weight growth control rate), Echinochloa crus-galli ([4]; 60 g a.i./ha) | activity level (fresh weight growth control rate), Setaria viridis ([5]; 60 g a.i./ha) | activity level (fresh weight growth control rate), Veronica polita ([6]; 60 g a.i./ha)

COC(=O)C1(C)ON=C(c2cc(-c3ncc(C(C)(F)F)cc3Cl)c(F)cc2Cl)O1 (stereo not drawn) [Compound 10]
10: activity level (fresh weight growth control rate), Abutilon theophrasti ([1]; 60 g a.i./ha) | activity level (fresh weight growth control rate), Amaranthus retroflexus ([2]; 60 g a.i./ha) | activity level (fresh weight growth control rate), Digitaria sanguinalis ([3]; 60 g a.i./ha) | activity level (fresh weight growth control rate), Echinochloa crus-galli ([4]; 60 g a.i./ha) | activity level (fresh weight growth control rate), Setaria viridis ([5]; 60 g a.i./ha) | activity level (fresh weight growth control rate), Veronica polita ([6]; 60 g a.i./ha)

CCC1(C(=O)OC)ON=C(c2cc(-c3ncc(Cl)cc3F)c(F)cc2Cl)O1 (stereo not drawn) [Compound 16]
10: activity level (fresh weight growth control rate), Abutilon theophrasti ([1]; 60 g a.i./ha) | activity level (fresh weight growth control rate), Amaranthus retroflexus ([2]; 60 g a.i./ha) | activity level (fresh weight growth control rate), Digitaria sanguinalis ([3]; 60 g a.i./ha) | activity level (fresh weight growth control rate), Echinochloa crus-galli ([4]; 60 g a.i./ha) | activity level (fresh weight growth control rate), Setaria viridis ([5]; 60 g a.i./ha) | activity level (fresh weight growth control rate), Veronica polita ([6]; 60 g a.i./ha)

CCC1(C(=O)OC)ON=C(c2cc(-c3ncc(C(F)(F)F)cc3Cl)c(F)cc2Cl)O1 (stereo not drawn) [Compound 17]
10: activity level (fresh weight growth control rate), Abutilon theophrasti ([1]; 60 g a.i./ha) | activity level (fresh weight growth control rate), Amaranthus retroflexus ([2]; 60 g a.i./ha) | activity level (fresh weight growth control rate), Digitaria sanguinalis ([3]; 60 g a.i./ha) | activity level (fresh weight growth control rate), Echinochloa crus-galli ([4]; 60 g a.i./ha) | activity level (fresh weight growth control rate), Setaria viridis ([5]; 60 g a.i./ha) | activity level (fresh weight growth control rate), Veronica polita ([6]; 60 g a.i./ha)

CCCOC(=O)C1(C)ON=C(c2cc(-c3ncc(Cl)cc3Cl)c(F)cc2Cl)O1 (stereo not drawn) [Compound 87]
10: activity level (fresh weight growth control rate), Abutilon theophrasti ([1]; 60 g a.i./ha) | activity level (fresh weight growth control rate), Amaranthus retroflexus ([2]; 60 g a.i./ha) | activity level (fresh weight growth control rate), Digitaria sanguinalis ([3]; 60 g a.i./ha) | activity level (fresh weight growth control rate), Echinochloa crus-galli ([4]; 60 g a.i./ha) | activity level (fresh weight growth control rate), Setaria viridis ([5]; 60 g a.i./ha) | activity level (fresh weight growth control rate), Veronica polita ([6]; 60 g a.i./ha)

CCOC(=O)C1ON=C(c2cc(-c3ccc(C(F)(F)F)cn3)c(F)cc2Cl)O1 (stereo not drawn) [Compound 23]
10: activity level (fresh weight growth control rate), Abutilon theophrasti ([1]; 60 g a.i./ha) | activity level (fresh weight growth control rate), Amaranthus retroflexus ([2]; 60 g a.i./ha) | activity level (fresh weight growth control rate), Digitaria sanguinalis ([3]; 60 g a.i./ha) | activity level (fresh weight growth control rate), Echinochloa crus-galli ([4]; 60 g a.i./ha) | activity level (fresh weight growth control rate), Setaria viridis ([5]; 60 g a.i./ha) | activity level (fresh weight growth control rate), Veronica polita ([6]; 60 g a.i./ha)

CSCOC(=O)C1(C)ON=C(c2cc(-c3ncc(C(F)(F)F)cc3Cl)c(F)cc2Cl)O1 (stereo not drawn) [Compound 109]
10: activity level (fresh weight growth control rate), Abutilon theophrasti ([1]; 60 g a.i./ha) | activity level (fresh weight growth control rate), Amaranthus retroflexus ([2]; 60 g a.i./ha) | activity level (fresh weight growth control rate), Digitaria sanguinalis ([3]; 60 g a.i./ha) | activity level (fresh weight growth control rate), Echinochloa crus-galli ([4]; 60 g a.i./ha) | activity level (fresh weight growth control rate), Setaria viridis ([5]; 60 g a.i./ha) | activity level (fresh weight growth control rate), Veronica polita ([6]; 60 g a.i./ha)

C=CCOC(=O)C1(C)ON=C(c2cc(-c3ncc(C(F)(F)F)cc3Cl)c(F)cc2Cl)O1 (stereo not drawn) [Compound 93]
10: activity level (fresh weight growth control rate), Abutilon theophrasti ([1]; 60 g a.i./ha) | activity level (fresh weight growth control rate), Amaranthus retroflexus ([2]; 60 g a.i./ha) | activity level (fresh weight growth control rate), Digitaria sanguinalis ([3]; 60 g a.i./ha) | activity level (fresh weight growth control rate), Echinochloa crus-galli ([4]; 60 g a.i./ha) | activity level (fresh weight growth control rate), Setaria viridis ([5]; 60 g a.i./ha) | activity level (fresh weight growth control rate), Veronica polita ([6]; 60 g a.i./ha)

CCOC(=O)C1(C)ON=C(c2cc(-c3ncc(Cl)cc3Cl)c(F)cc2Cl)O1 (stereo not drawn) [Compound 40]
10: activity level (fresh weight growth control rate), Abutilon theophrasti ([1]; 60 g a.i./ha) | activity level (fresh weight growth control rate), Amaranthus retroflexus ([2]; 60 g a.i./ha) | activity level (fresh weight growth control rate), Digitaria sanguinalis ([3]; 60 g a.i./ha) | activity level (fresh weight growth control rate), Echinochloa crus-galli ([4]; 60 g a.i./ha) | activity level (fresh weight growth control rate), Setaria viridis ([5]; 60 g a.i./ha) | activity level (fresh weight growth control rate), Veronica polita ([6]; 60 g a.i./ha)

COC(=O)C1(C)ON=C(c2cc(-c3ncc(C(F)(F)F)cc3Cl)c(F)cc2Cl)O1 (stereo not drawn) [Compound 15]
10: activity level (fresh weight growth control rate), Abutilon theophrasti ([1]; 15 g a.i./ha) | activity level (fresh weight growth control rate), Amaranthus retroflexus ([2]; 15 g a.i./ha) | activity level (fresh weight growth control rate), Digitaria sanguinalis ([3]; 15 g a.i./ha) | activity level (fresh weight growth control rate), Echinochloa crus-galli ([4]; 15 g a.i./ha) | activity level (fresh weight growth control rate), Setaria viridis ([5]; 15 g a.i./ha) | activity level (fresh weight growth control rate), Veronica polita ([6]; 15 g a.i./ha)
